The text below walks through data of US20110306671A1, “AMIDE DERIVATIVES OF ETHACRYNIC ACID” (The Regents of the The University of California, priority 2008, published 2011).

One assay concerns PC3. Put plainly: Cytotoxicity of EA in tumor cell line PC3. Type of assay: cell-based. The note with it: Homo sapiens, PC-3, mean of at least two experiments.
In assay [1] the test system is NFATc-mediated transcription. Put plainly: NFAT reporter assay in HEK293 cells. Type of assay: cell-based, human. The note with it: 50 μM EA, 24 hours. The method, then: FIG. 1. Inhibition of Wnt/β-catenin signaling by EA. […] Cells were lysed and luciferase activity was quantified. Total protein levels were determined by Bradford Assay and serve as a control for total cell number. (B) HEK293 cells were co-transfected with TOPflash reporter construct, along with expression plasmids for Wnt1, Wnt3, LRP6, Dvl and β-catenin as indicated. […] (C) HEK293 cells were transfected with FOPflash reporter with or without an expression plasmid for β-catenin. […] (D) HEK293 cells were transfected with NFAT reporter and expression plasmid for NFATc. […] The results are expressed as fold induction of luciferase activity compared to the basal level, and are the means of three experiments±SEM. For screening of the drug library, HEK293 cells were grown for at least 24 hours in 10 cm plates prior to transfection. At 50% confluence, cells were transfected with 5 μg of TOPflash reporter, 1 μg expression vector for Dvl, 1 μg of control plasmid pCMXβgal and carrier DNA pcDNA3 plasmid for a total of 10 μg/plate. After transfection for 24 hours, cells were harvested and dispersed in 96-well microtiter plates. […] Then luciferase values were determined. In the Results section, data are expressed as fold stimulation of luciferase activity compared to the basal level. […]

In a further assay the test system is U266. Put plainly: Cytotoxicity of EA in tumor cell line U266. Format: cell-based. The note with it: Homo sapiens, U-266, mean of at least two experiments.
Another assay deals with A549. Put plainly: Cytotoxicity of EA in tumor cell line A549. Format: cell-based. The following applies: Homo sapiens, mean of at least two experiments.
In another assay the test system is MCF-7. Put plainly: Cytotoxicity of EA in tumor cell line MCF-7. Type of assay: cell-based. The following applies: Homo sapiens, MCF7, mean of at least two experiments.
For the next assay, the target named is T1, LEF-1/β-catenin complex (Homo sapiens, UniProt Q9UJU2).
T1 construct: endogenous in cells; host or cells: SW480 cells
Put plainly: Co-immunoprecipitation of the β-catenin complex in SW480 cells. Type of assay: cell-based. The following applies: increasing EA, 16 hours. The method, then: FIG. 7. EA destabilizes the LEF-1/β-catenin complex. (A) SW480 cells were treated with increasing amounts of EA for 16 hours. Cells were lysed, and IP was completed with anti-β-catenin monoclonal antibody. The immune complexes were analyzed by immunoblotting with anti-LEF-1, anti-α-catenin and anti-β-catenin antibodies. (B) EA inhibits Wnt/β-catenin signaling in SW480 cells. SW480 cells were transfected with TOPflash reporter and control plasmid pCMXβgal. After transfection for 24 hours, cells were treated with increasing concentrations of EA for another 24 hours as indicated. Cells were then harvested and luciferase values were determined. The results are expressed as relative luciferase activity (%) normalized to a β-galactosidase control.
Primary CLL cells and SW480 cells were treated with the indicated amounts of EA. Cells were washed twice with PBS and resuspended in 0.5 mL lysis buffer (20 mM Tris-HCl, pH 8.0/10% glycerol/5 mM MgCl2/0.15 M KCl/0.1% Nonidet P-40 with protease inhibitors). For CLL cells, lysates of 1 to 2×10^7 cells were incubated with anti-LEF-1 antibody at a 1:1000 dilution overnight at 4° C., and then with saturating amounts of protein G plus/protein A agarose beads (Calbiochem) at 4° C. for 2 hours before centrifugation at 15,000 g for 5 minutes. […]

In a further assay the test system is SK-Mel-28. Put plainly: Cytotoxicity of EA in tumor cell line SK-Mel-28. Type of assay: cell-based. The following applies: Homo sapiens, mean of at least two experiments.
The subject of assay [2] is Wnt3a-induced transcription. Put plainly: Stable Super8XTOPflash reporter HEK293 cells stimulated with Wnt3a. Type of assay: cell-based, human. As for the experimental part:
FIG. 1. Inhibition of Wnt/β-catenin signaling by EA. […] Cells were lysed and luciferase activity was quantified. Total protein levels were determined by Bradford Assay and serve as a control for total cell number. (B) HEK293 cells were co-transfected with TOPflash reporter construct, along with expression plasmids for Wnt1, Wnt3, LRP6, Dvl and β-catenin as indicated. […] (C) HEK293 cells were transfected with FOPflash reporter with or without an expression plasmid for β-catenin. […] (D) HEK293 cells were transfected with NFAT reporter and expression plasmid for NFATc. […] The results are expressed as fold induction of luciferase activity compared to the basal level, and are the means of three experiments±SEM. The Super8XTOPflash construct (kindly provided by Dr. R. Moon) was stably transfected into HEK293 cells, and single cell clones were isolated. […] (2003) and Willert et al. (2008).

T1 sequence (Q9UJU2 whole entry, one chain of several): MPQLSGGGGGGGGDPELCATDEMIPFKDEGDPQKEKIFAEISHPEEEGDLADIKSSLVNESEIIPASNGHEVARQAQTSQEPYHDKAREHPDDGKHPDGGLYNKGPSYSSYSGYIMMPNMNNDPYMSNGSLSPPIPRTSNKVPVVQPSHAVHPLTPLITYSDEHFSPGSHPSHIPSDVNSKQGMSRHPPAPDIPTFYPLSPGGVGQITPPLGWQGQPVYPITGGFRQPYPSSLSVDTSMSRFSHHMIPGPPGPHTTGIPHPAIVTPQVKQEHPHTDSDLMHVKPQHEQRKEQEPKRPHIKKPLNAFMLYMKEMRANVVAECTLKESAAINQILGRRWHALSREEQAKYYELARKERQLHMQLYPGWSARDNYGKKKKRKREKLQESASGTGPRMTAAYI

With `C=C(CC)C(=O)c1ccc(OCC(=O)O)c(Cl)c1Cl` [Compound 1, Ethacrynic acid], the IC50 in the assay with PC3 was 67 µM; in the assay with U266, 90 µM; in the assay on A549 it was 178 µM; in the assay with MCF-7, 63 µM; with SK-Mel-28, 122 µM; in assay [2] (Homo sapiens, HEK293, read-out: IC50 for inhibition of Wnt3A-induced transcription), approximately 25 µM. Moreover, the “effect on NFATc-mediated transcription from a NFAT reporter” value in assay [1] is listed as “did not block”. Moreover, the “LEF-1 levels in the β-catenin complex” value at LEF-1/β-catenin complex is listed as “decreased LEF-1 levels in the β-catenin complex in a concentration-dependent manner”. Moreover, the “α-catenin levels in the β-catenin complex” value on LEF-1/β-catenin complex is “little effect”. Besides, the “effect on Wnt3a-induced transcription of the SuperTOPflash reporter” value in assay [2] (Wnt3a 10 nM, EA 20-35 μM, 18 hours) is given as “blocked Wnt3a-induced transcription in a dose-dependent manner”.

The term IC50 denotes the concentration at which inhibition is half-maximal.
